Reference: patent publication US7807841B2, “Spiro-containing compounds and compositions as modulators of steroid hormone nuclear receptors” (IRM LLC, priority 2005, dated 2010)
pIC50: −log10 of the molar value.

Legend:
Assay type in all cases: cell-based
[1] = molecular target: T1, Progesterone Receptor (PR) (Homo sapiens, UniProt P06401); assay: Functional assay of progesterone receptor antagonism (progesterone-induced alkaline phosphatase activity in T-47D cells); details: antagonism of progesterone (3 nM)-induced PR activity, read-out: PR-T47D IC50
T1 sequence (P06401 679-933 limits assumed): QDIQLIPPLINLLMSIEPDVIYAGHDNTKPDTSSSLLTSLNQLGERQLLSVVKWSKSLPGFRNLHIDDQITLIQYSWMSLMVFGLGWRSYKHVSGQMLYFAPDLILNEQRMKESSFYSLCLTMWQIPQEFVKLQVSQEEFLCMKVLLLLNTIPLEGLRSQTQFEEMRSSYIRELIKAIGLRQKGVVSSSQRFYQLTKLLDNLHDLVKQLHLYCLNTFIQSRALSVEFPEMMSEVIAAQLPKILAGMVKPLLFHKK
Description: The PR antagonist activity of the compounds is determined by progesterone-induced alkaline phosphatase activity in the T-47D cell line (ATCC). In the T-47D breast cancer cells, progesterone specifically induces de novo synthesis of a membrane-associated alkaline phosphatase enzyme in a time and dose-dependent manner (Di Lorenzo et al., Cancer Research, 51: 4470-4475 (1991)). The alkaline phosphatase enzymatic activity can be measured with a chemiluminescent substrate, such as CSPD® (Applied Biosystems).
The assay is performed in 384 well plates. Briefly, T-47D cells are plated in 384 well plates at a density of approximately 2.5×10^4 cells/well in 50 μl medium supplemented with 10% fetal bovine serum. Twenty four hours later, the medium is aspirated. New medium that is free of phenol red and serum is added to the cells. Compounds prepared in DMSO are transferred to the cells. The cells are then stimulated with 3 nM final concentration of progesterone (Sigma) and incubated at 37° C. for another 24 hours before the alkaline phosphatase is assayed with 25 μl of CSPD® (Applied Biosystems) using a luminometer (CLIPR). The expression of alkaline phosphatase is used as an indicator of progesterone-induced PR trans-activation. Each compound is tested in duplicates with a 12-concentration titration. IC50 values (defined as the concentration of test compound required to antagonize 50% of progesterone-induced PR activity) are determined from the dose-response curve.

[2] = molecular target: T2, Glucocorticoid Receptor (GR) (Homo sapiens, UniProt P04150); assay: Functional assay of glucocorticoid receptor antagonism (Gal4-GR-LBD luciferase reporter, COS-7 cells); details: antagonism of dexamethasone (10 nM)-induced GR activity
T2 construct: expressed in transfected cells; host or cells: COS-7 cells (ATCC)
T2 sequence (P04150 541-778 isoform P04150-3): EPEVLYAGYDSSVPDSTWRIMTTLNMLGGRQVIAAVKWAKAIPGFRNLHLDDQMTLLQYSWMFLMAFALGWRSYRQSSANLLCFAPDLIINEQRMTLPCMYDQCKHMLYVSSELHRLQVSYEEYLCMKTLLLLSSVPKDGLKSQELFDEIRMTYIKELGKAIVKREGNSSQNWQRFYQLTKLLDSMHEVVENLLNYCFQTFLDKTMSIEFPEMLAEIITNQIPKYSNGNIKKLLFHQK
Description: The GR antagonist activity of the compounds is determined in a mammalian two hybrid reporter system. The ligand binding domain of GR (GR-LBD, sequence encoding amino acid 541-778) is fused to the DNA binding domain of the yeast Gal4 gene. The GR gene is cloned from a human lung cDNA library with PCR.
The assay is performed in 384 well plates: COS-7 cells (ATCC) are transfected with expression vectors for Gal-4-GR-LBD and a luciferase reporter vector containing Gal4 binding sequence (pG5-Luc). Cells are plated in 384 well plates immediately after transfection (approximately 8000 cells/well in 50 μl medium). The medium is supplemented with 3% charcoal-dextran treated fetal bovine serum (Hyclone). Twenty four hours after transfection, compounds prepared in DMSO are transferred to the cells. The cells are then stimulated with 10 nM final concentration of dexamethasone (Sigma) and incubated at 37° C. for another 24 hours before the luciferase activity is assayed with 20 μl of Bright-Glo (Promega) using a luminometer (CLIPR). The expression of luciferase is used as an indicator of dexamethasone-induced GR trans-activation. Each compound is tested in duplicates with a 12-concentration titration. IC50 values (defined as the concentration of test compound required to antagonize 50% of dexamethasone-induced GR activity) are determined from the dose-response curve.

[3] = molecular target: T3, Mineralocorticoid Receptor (MR) (Homo sapiens, UniProt P08235); assay: Functional assay of mineralocorticoid receptor antagonism (Gal4-MR mammalian two hybrid luciferase reporter, 293T cells); details: antagonism of aldosterone (0.4 nM)-induced MR activity
T3 construct: expressed in transfected cells; host or cells: 293T cells (ATCC)
T3 sequence (P08235 672-984): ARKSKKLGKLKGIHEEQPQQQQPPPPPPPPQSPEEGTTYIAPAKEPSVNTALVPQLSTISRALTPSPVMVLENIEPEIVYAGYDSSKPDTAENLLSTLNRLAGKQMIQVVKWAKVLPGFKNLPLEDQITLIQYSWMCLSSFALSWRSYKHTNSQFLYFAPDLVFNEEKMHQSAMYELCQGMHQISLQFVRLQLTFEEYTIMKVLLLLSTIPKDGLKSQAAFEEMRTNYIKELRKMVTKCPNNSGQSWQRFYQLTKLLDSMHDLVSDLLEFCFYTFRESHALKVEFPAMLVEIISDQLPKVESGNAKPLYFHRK
Description: The MR antagonist activity of the compounds is determined in a mammalian two hybrid reporter system. The N-terminus of MR (MR-NT, sequence coding amino acid 1-597) is fused to the activation domain of the VP16 gene. The ligand binding domain of MR (MR-LBD, sequence encoding amino acid 672-984) is fused to the DNA binding domain of the yeast Gal4 gene. The MR gene is cloned from a human kidney cDNA library with PCR.
The assay is performed in 384 well plates. Briefly, 293T cells (ATCC) are transfected with expression vectors for Gal-4-MR-LBD and VP16-MR NT, and a luciferase reporter vector containing Gal4 binding sequence (pG5-Luc). Cells are plated in 384 well plates immediately after transfection (approximately 3×10^4 cells/well in 50 μl medium). The medium is supplemented with 3% charcoal-dextran treated fetal bovine serum (Hyclone). Twenty four hours after transfection, compounds prepared in DMSO are transferred to the cells. The cells are then stimulated with 0.4 nM final concentration of aldosterone (Acros) and incubated at 37° C. for another 24 hours before the luciferase activity is assayed with 20 μl of Bright-Glo (Promega) using a luminometer (CLIPR). The expression of luciferase is used as an indicator of aldosterone-induced MR trans-activation. Each compound is tested in duplicates with 12-concentration titration. IC50 values (defined as the concentration of test compound required to antagonize 50% of aldosterone-induced MR activity) are determined from the dose-response curve.

Row | Structure (SMILES) | pIC50 [1] | pIC50 [2] | pIC50 [3]
1 | CC12CCC(=O)N1CC1(O2)c2ccccc2C=Cc2ccccc21 (stereo not drawn) [FRS-1] | < 5.00 | < 5.00 | > 7.00
2 | CC12CCCC(=O)N1CC1(O2)c2ccccc2C=Cc2ccccc21 (stereo not drawn) [FRS-4] | 5.00 to 6.00 | < 5.00 | 6.00 to 7.00
3 | O=C1CCC2(c3ccc(F)cc3)OC3(CN12)c1ccccc1C=Cc1ccccc13 (stereo not drawn) [FRS-3] | < 5.00 | < 5.00 | 6.00 to 7.00
4 | O=C1CCC2(C3CC3)OC3(CN12)c1ccccc1C=Cc1ccccc13 (stereo not drawn) [FRS-10] | < 5.00 | 5.00 to 6.00 | > 7.00
5 | CC12CCC(=O)N1CC1(O2)c2ccccc2C=Cc2ccccc21 (single isomer, unassigned) [FRS-1 (Chiral Synthesis)] | < 5.00 | 5.00 to 6.00 | > 7.00
6 | O=C1CCC2(c3cccs3)OC3(CN12)c1ccccc1C=Cc1ccccc13 (stereo not drawn) [FRS-8] | 5.00 to 6.00 | 5.00 to 6.00 | > 7.00
7 | CC12CCC(=O)N1CC1(O2)c2ccccc2CCc2ccccc21 (stereo not drawn) [FRS-13] | < 5.00 | < 5.00 | > 7.00
8 | O=C1CCC2(c3ccccc3)OC3(CN12)c1ccccc1C=Cc1ccccc13 (stereo not drawn) [FRS-2] | < 5.00 | < 5.00 | 6.00 to 7.00
9 | O=C1CCCC2(C(F)(F)F)OC3(CN12)c1ccccc1C=Cc1ccccc13 (stereo not drawn) [FRS-11] | < 5.00 | 5.00 to 6.00 | > 7.00
10 | CC12CCCCC(=O)N1CC1(O2)c2ccccc2C=Cc2ccccc21 (stereo not drawn) [FRS-6] | < 5.00 | < 5.00 | 6.00 to 7.00
11 | COc1ccc(C23CCC(=O)N2CC2(O3)c3ccccc3C=Cc3ccccc32)cc1 (stereo not drawn) [FRS-5] | < 5.00 | < 5.00 | 6.00 to 7.00
12 | CCCC12CCC(=O)N1CC1(O2)c2ccccc2C=Cc2ccccc21 (stereo not drawn) [FRS-9] | 5.00 to 6.00 | 5.00 to 6.00 | > 7.00
13 | CC12CCC(=O)N1CC1(O2)c2ccccc2CCc2ccccc21 (single isomer, unassigned) [FRS-13 (Chiral Synthesis)] | < 5.00 | < 5.00 | > 7.00
14 | CC12CCCC(=O)N1CC1(O2)c2ccccc2CCc2ccccc21 (stereo not drawn) [FRS-14] | 5.00 to 6.00 | < 5.00 | 6.00 to 7.00

Now from value to compound:

Row | pIC50 [1] | pIC50 [2] | pIC50 [3] | Structure (SMILES)
15 | < 5.00 | < 5.00 | 6.00 to 7.00 | Oc1ccc(C2=NCC3(O2)c2ccccc2C=Cc2ccccc23)cc1 [OXS-1]
16 | 5.00 to 6.00 | < 5.00 | 5.00 to 6.00 | CC1(C)OC2(CN1C(=O)Nc1ccc(F)cc1F)c1ccccc1C=Cc1ccccc12 [SOXS-1]
17 | 6.00 to 7.00 | < 5.00 | 6.00 to 7.00 | CC(=O)N1CC2(OC13CCCCC3)c1ccccc1C=Cc1ccccc12 [SOXS-6]
18 | 6.00 to 7.00 | < 5.00 | > 7.00 | CC1(C)OC2(CN1S(C)(=O)=O)c1ccccc1C=Cc1ccccc12 [SOXS-4]
19 | 5.00 to 6.00 | 5.00 to 6.00 | 6.00 to 7.00 | CC(=O)N1CC2(OC1(C)C)c1ccccc1C=Cc1ccccc12 [SOXS-3]
